Laboratory results taken from patent US20240270821A1, “GIP/GLP1/GCG TRI-RECEPTOR AGONISTS AND USES THEREOF” (priority 2023, published 2024).
Read-outs that look alike come from different tables or passages of the source. Starred links: 1 amine or outer side, 2 acyl side, 3 side chain; linkers in the order of their positions; H or OH if unused. Non-standard residues stand in square brackets, D forms with d. Residues, ends and D or L forms follow the SMILES beside them. Groups on a side chain read outwards from the residue. No end group written: not given here. *: point of attachment. C20 diacid = O=C(O)CCCCCCCCCCCCCCCCCCC(=O)*; C18 diacid = O=C(O)CCCCCCCCCCCCCCCCC(=O)*; αMePhe(2-F) = C[C@](N)(Cc1ccccc1F)C(=O)O; γGlu = O=C(O)[C@H](CCC(=O)[*:2])N[*:1]; αMe4Pal = C[C@](N)(Cc1ccncc1)C(=O)O; αMeY = C[C@](N)(Cc1ccc(O)cc1)C(=O)O; 4Pal = N[C@@H](Cc1ccncc1)C(=O)O; αMeL = CC(C)C[C@](C)(N)C(=O)O; αMeS = C[C@](N)(CO)C(=O)O; Orn = NCCC[C@H](N)C(=O)O; AEEA = NCCOCCOCC(=O)O; Aib = CC(C)(N)C(=O)O

What was measured:
Format in all cases: cell-based
hGIPR [1] = biological target: T1, hGIPR (Homo sapiens, UniProt P48546); assay: Functional cAMP activity in the presence of 1% HSA; conditions: read-out: cAMP Rel EC50, hGIPR
T1 sequence (P48546 22-466): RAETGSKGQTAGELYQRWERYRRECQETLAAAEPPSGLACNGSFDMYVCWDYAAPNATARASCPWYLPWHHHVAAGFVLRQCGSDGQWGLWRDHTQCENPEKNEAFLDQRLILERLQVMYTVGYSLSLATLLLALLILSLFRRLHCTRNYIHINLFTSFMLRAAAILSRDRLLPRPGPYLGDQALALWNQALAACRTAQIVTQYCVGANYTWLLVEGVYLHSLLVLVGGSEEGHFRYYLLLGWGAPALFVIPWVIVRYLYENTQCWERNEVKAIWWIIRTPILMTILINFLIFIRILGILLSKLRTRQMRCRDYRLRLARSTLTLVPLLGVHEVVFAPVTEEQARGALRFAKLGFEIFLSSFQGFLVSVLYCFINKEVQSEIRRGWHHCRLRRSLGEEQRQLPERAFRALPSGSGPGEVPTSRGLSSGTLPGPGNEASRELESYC

hGLP-1R [2] = biological target: T2, hGLP-1R (Homo sapiens, UniProt P43220); assay: Functional cAMP activity in the presence of 1% HSA; conditions: read-out: cAMP Rel EC50, hGLP-1R
T2 sequence (P43220 24-463): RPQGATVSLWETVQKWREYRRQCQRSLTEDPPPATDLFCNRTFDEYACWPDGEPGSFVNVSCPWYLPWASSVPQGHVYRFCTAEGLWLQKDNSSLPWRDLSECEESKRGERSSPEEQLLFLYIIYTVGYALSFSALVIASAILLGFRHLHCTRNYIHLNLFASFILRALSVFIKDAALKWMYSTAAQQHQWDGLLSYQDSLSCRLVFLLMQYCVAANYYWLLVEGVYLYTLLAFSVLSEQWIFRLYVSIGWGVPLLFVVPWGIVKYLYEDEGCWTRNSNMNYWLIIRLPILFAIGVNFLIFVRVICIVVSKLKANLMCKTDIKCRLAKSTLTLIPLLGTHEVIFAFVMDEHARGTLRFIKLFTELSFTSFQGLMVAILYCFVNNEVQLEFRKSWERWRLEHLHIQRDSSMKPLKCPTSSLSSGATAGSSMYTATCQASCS

human GcgR = human GcgR (Homo sapiens, UniProt P47871); assay: Functional cAMP activity in the presence of 1% HSA; conditions: read-out: cAMP Rel EC50, hGcgR
Sequence of human GcgR (P47871 26-477): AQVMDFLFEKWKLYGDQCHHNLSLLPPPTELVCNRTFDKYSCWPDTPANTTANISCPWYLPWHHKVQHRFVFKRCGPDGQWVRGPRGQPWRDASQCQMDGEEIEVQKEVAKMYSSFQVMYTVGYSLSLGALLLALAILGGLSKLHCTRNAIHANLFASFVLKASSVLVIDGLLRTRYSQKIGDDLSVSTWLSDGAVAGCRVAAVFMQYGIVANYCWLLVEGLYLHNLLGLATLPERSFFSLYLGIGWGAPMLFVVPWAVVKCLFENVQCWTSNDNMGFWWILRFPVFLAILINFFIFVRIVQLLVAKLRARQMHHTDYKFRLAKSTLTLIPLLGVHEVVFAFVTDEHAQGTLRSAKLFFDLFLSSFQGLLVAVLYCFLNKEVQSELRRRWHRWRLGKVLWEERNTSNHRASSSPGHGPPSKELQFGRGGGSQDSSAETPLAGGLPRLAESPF

hGIPR [3] = biological target: T1, hGIPR; assay: Functional cAMP activation in the presence of 0.1% casein (no HSA); conditions: read-out: Relative cAMP EC50, hGIPR;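 for Relative cAMP EC50, hGIPR: intracellular cAMP rise after 30 min at 37 °C read by HTRF against a standard curve, scaled between buffer alone (0%) and top control ligand concentration (100%), four-parameter fit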;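 for Relative cAMP EC50, hGLP-1R: intracellular cAMP rise after 30 min at 37 °C read by HTRF, normalized between buffer only (0%) and maximal control ligand (100%), four-parameter variable-slope fit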;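 for Relative cAMP EC50, hGcgR: intracellular cAMP rise after 30 min at 37 °C, read by HTRF against a cAMP standard curve, scaled from buffer only (0%) to maximal control ligand response (100%)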
hGLP-1R [4] = biological target: T2, hGLP-1R; assay: as above; conditions: read-out: Relative cAMP EC50, hGLP-1R
hGcgR = hGcgR (Homo sapiens, UniProt P47871); assay: as above; conditions: read-out: Relative cAMP EC50, hGcgR;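 note: intracellular cAMP rise after 30 min at 37 °C, read by HTRF against a cAMP standard curve, scaled from buffer only (0%) to maximal control ligand response (100%)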
Sequence of hGcgR (P47871 26-477): as above

[5] = in the presence of 0.1% casein (no HSA), geometric mean
[6] = 0.1% casein, no HSA, geometric mean

Compound	EC50 (hGIPR [1])	EC50 (hGLP-1R [2])	EC50 (human GcgR)	EC50 (hGIPR [3])	EC50 (hGLP-1R [4])	EC50 (hGcgR)	EC50 (hGIPR [3]; [5])	EC50 (hGLP-1R [4]; [5])	EC50 (hGcgR; [5])	EC50 (hGIPR [3]; [6])	EC50 (hGLP-1R [4]; [6])	EC50 (hGcgR; [6])
H-Y[Aib]QGTFTSDFS[Orn][αMeL]LDKK([AEEA-γGlu-C18 diacid])AQ[Aib]AFIEWLLEGGESSGEPPPSGE-NH2 [Example 123]	94.6 nM	1500 nM	1740 nM	–	–	–	0.531 nM	4.82 nM	4.55 nM	–	–	–
H-Y[Aib]QGT[αMePhe(2-F)]TSD[4Pal]SI[αMeL]LD[Orn]K([AEEA-γGlu-C18 diacid])AQ[αMe4Pal]EFI[dE][αMeY]LLEGGPSSGAPPPSGS-NH2 [Example 641]	0.832 nM	68.3 nM	451 nM	0.00819 nM	0.489 nM	3.72 nM	–	–	–	–	–	–
H-Y[Aib]QGTFTSDYSK[αMeL]LDKK([AEEA-γGlu-C20 diacid])AQQAFIEYLIAGGPSSGAPPPSSE-NH2 [Example 322]	89.3 nM	135 nM	2620 nM	–	–	–	0.264 nM	0.394 nM	5.41 nM	–	–	–
CC[C@H](C)[C@H](NC(=O)[C@H](CC(C)C)NC(=O)[C@](C)(Cc1ccc(O)cc1)NC(=O)[C@@H](CCC(=O)O)NC(=O)[C@@H](NC(=O)[C@H](Cc1ccccc1)NC(=O)[C@H](CCCN)NC(=O)C(C)(C)NC(=O)[C@H](CCC(N)=O)NC(=O)[C@H](C)NC(=O)[C@H](CCCCNC(=O)CC[C@H](NC(=O)CC[C@H](NC(=O)CCCCCCCCCCCCCCCCC(=O)O)C(=O)O)C(=O)O)NC(=O)[C@H](CCCN)NC(=O)[C@H](CC(=O)O)NC(=O)[C@H](CC(C)C)NC(=O)[C@](C)(CC(C)C)NC(=O)[C@H](CCC(=O)O)NC(=O)[C@](C)(CO)NC(=O)[C@H](Cc1ccncc1)NC(=O)[C@H](CC(=O)O)NC(=O)[C@H](CO)NC(=O)[C@@H](NC(=O)[C@](C)(Cc1ccccc1F)NC(=O)[C@@H](NC(=O)CNC(=O)[C@H](CCC(N)=O)NC(=O)C(C)(C)NC(=O)[C@@H](N)Cc1ccc(O)cc1)[C@@H](C)O)[C@@H](C)O)[C@@H](C)CC)C(=O)N[C@@H](CCC(=O)O)C(=O)NCC(=O)NCC(=O)N1CCC[C@H]1C(=O)N[C@@H](CO)C(=O)N[C@@H](CO)C(=O)NCC(=O)N[C@@H](CCC(=O)O)C(=O)N1CCC[C@H]1C(=O)N1CCC[C@H]1C(=O)N1CCC[C@H]1C(=O)N[C@@H](CCC(=O)O)C(N)=O [Example 447] (H-Y[Aib]QGT[αMePhe(2-F)]TSD[4Pal][αMeS]E[αMeL]LD[Orn]K([γGlu-γGlu-C18 diacid])AQ[Aib][Orn]FI[dE][αMeY]LIEGGPSSGEPPPE-NH2)	1.81 nM	11.3 nM	1090 nM	0.0177 nM	0.214 nM	9.71 nM	–	–	–	–	–	–
H-Y[Aib]QGT[αMePhe(2-F)]TSD[4Pal]SI[αMeL]LD[Orn]K([γGlu-γGlu-C18 diacid])AQ[αMe4Pal][Orn]FI[dE][αMeY]LIEGGPSSGEPPPEAE-NH2 [Example 684]	0.436 nM	14.2 nM	143 nM	0.00843 nM	0.28 nM	2.16 nM	–	–	–	–	–	–
H-Y[Aib]QGTFTSD[4Pal]SQ[αMeL]LD[Orn]K([γGlu-γGlu-C18 diacid])AQ[αMe4Pal]AFIEYLIE[dA]GPSSGEPPPSGS-NH2 [Example 1019]	21.3 nM	161 nM	579 nM	–	–	–	0.169 nM	1.33 nM	4.36 nM	–	–	–
H-Y[Aib]QGTFTSD[4Pal]SQ[αMeL]LDKK([AEEA-γGlu-C18 diacid])AQ[αMe4Pal]AFIEWLIEGGPSSGAPPPSGT-NH2 [Example 831]	38.2 nM	237 nM	1450 nM	–	–	–	0.604 nM	0.672 nM	4.63 nM	–	–	–
H-Y[Aib]QGTFTSD[4Pal]SQ[αMeL]LD[Orn]K([AEEA-γGlu-C18 diacid])AQ[αMe4Pal]AFI[dE][αMeY]LIEGGPSSGAPPPSGSEE-NH2 [Example 1042]	84.8 nM	642 nM	1890 nM	–	–	–	1.3 nM	10.3 nM	27.5 nM	–	–	–
H-Y[Aib]Q[dA]T[αMePhe(2-F)]TSD[4Pal][αMeS]I[αMeL]LD[Orn]K([γGlu-γGlu-C18 diacid])AQ[Aib]EFI[dE][αMeY]LIEGGPSSGAPPPSGSE-NH2 [Example 1224]	3.78 nM	28.4 nM	208 nM	–	–	–	–	–	–	0.048 nM	0.379 nM	2.32 nM
H-Y[Aib]QGT[αMePhe(2-F)]TSD[4Pal][αMeS]I[αMeL]LD[Orn]K([γGlu-γGlu-C18 diacid])AQ[Aib][Orn]FI[dE]YLLEGGPSSGEPPPSGTE-NH2 [Example 532]	1.49 nM	47.3 nM	157 nM	0.0159 nM	0.577 nM	1.37 nM	–	–	–	–	–	–
H-Y[Aib]QGTFTSD[4Pal]S[Orn][αMeL]LDKK([γGlu-γGlu-C18 diacid])AQ[αMe4Pal]AFIEYLIAGGPSSGEPPPSGTEE-NH2 [Example 981]	21.1 nM	330 nM	477 nM	–	–	–	0.243 nM	4.45 nM	3.7 nM	–	–	–
H-Y[Aib]QGTFTSD[4Pal][αMeS]Q[αMeL]LD[Orn]K([dE-γGlu-C18 diacid])AQ[αMe4Pal]QFIE[αMeY]LIA[Aib]GPSSGAPPPSGGGE-NH2 [Example 1185]	2.31 nM	66.1 nM	206 nM	–	–	–	0.0266 nM	0.762 nM	1.64 nM	–	–	–

More lines, main results first:

EC50 (hGIPR [1])	EC50 (hGLP-1R [2])	EC50 (human GcgR)	EC50 (hGIPR [3])	EC50 (hGLP-1R [4])	EC50 (hGcgR)	Compound	EC50 (hGIPR [3]; [5])	EC50 (hGLP-1R [4]; [5])	EC50 (hGcgR; [5])	EC50 (hGIPR [3]; [6])	EC50 (hGLP-1R [4]; [6])	EC50 (hGcgR; [6])
0.607 nM	18.2 nM	130 nM	0.0109 nM	0.235 nM	1.71 nM	H-Y[Aib]QGT[αMePhe(2-F)]TSD[4Pal][αMeS]I[αMeL]LD[Orn]K([AEEA-γGlu-C18 diacid])AQ[Aib][Orn]FI[dE][αMeY]LIEGGPSSGEPPPEGTGE-NH2 [Example 697]	–	–	–	–	–	–
0.967 nM	24.8 nM	275 nM	0.0164 nM	0.341 nM	4.04 nM	Y[Aib]QGT[αMePhe(2-F)]TSD[4Pal][αMeS]I[αMeL]LD[Orn]K([γGlu-γGlu-C18 diacid])AQ[Aib][Orn]FI[dE]YLIEGGPSSGEPPPSGTE-NH2 [Example 521]	–	–	–	–	–	–
1.58 nM	14.9 nM	325 nM	0.0139 nM	0.177 nM	1.41 nM	H-Y[Aib]QGT[αMePhe(2-F)]TSD[4Pal][αMeS]I[αMeL]LD[Orn]K([AEEA-γGlu-C18 diacid])AQ[Aib]NFIEYLIEGGPSSGEPPPEEG-NH2 [Example 482]	–	–	–	–	–	–
7.02 nM	77.1 nM	130 nM	–	–	–	Y[Aib]QGTFTSD[4Pal][αMeS]Q[αMeL]LD[Orn]K([dE-γGlu-C18 diacid])AQ[αMe4Pal]QFIQ[αMeY]LIEGGPSSGEPPPSGGGE-NH2 [Example 1188]	0.0914 nM	1.01 nM	1.16 nM	–	–	–
6.69 nM	56.2 nM	353 nM	0.132 nM	0.795 nM	5.49 nM	Y[Aib]QGT[αMePhe(2-F)]TSD[4Pal][αMeS]ILLD[Orn]K([γGlu-γGlu-C18 diacid])AQ[Aib][Orn]FI[dE]YLIEGGPSSGEPPPEGGEE-NH2 [Example 605]	–	–	–	–	–	–
0.96 nM	10.9 nM	384 nM	0.0101 nM	0.256 nM	4.12 nM	CC[C@H](C)[C@H](NC(=O)[C@H](CC(C)C)NC(=O)[C@](C)(Cc1ccc(O)cc1)NC(=O)[C@@H](CCC(=O)O)NC(=O)[C@@H](NC(=O)[C@H](Cc1ccccc1)NC(=O)[C@H](CC(N)=O)NC(=O)C(C)(C)NC(=O)[C@H](CCC(N)=O)NC(=O)[C@H](C)NC(=O)[C@H](CCCCNC(=O)COCCOCCNC(=O)CC[C@H](NC(=O)CC[C@H](NC(=O)CCCCCCCCCCCCCCCCC(=O)O)C(=O)O)C(=O)O)NC(=O)[C@H](CCCN)NC(=O)[C@H](CC(=O)O)NC(=O)[C@H](CC(C)C)NC(=O)[C@](C)(CC(C)C)NC(=O)[C@@H](NC(=O)[C@](C)(CO)NC(=O)[C@H](Cc1ccncc1)NC(=O)[C@H](CC(=O)O)NC(=O)[C@H](CO)NC(=O)[C@@H](NC(=O)[C@](C)(Cc1ccccc1F)NC(=O)[C@@H](NC(=O)CNC(=O)[C@H](CCC(N)=O)NC(=O)C(C)(C)NC(=O)[C@@H](N)Cc1ccc(O)cc1)[C@@H](C)O)[C@@H](C)O)[C@@H](C)CC)[C@@H](C)CC)C(=O)N[C@@H](CCC(=O)O)C(=O)NCC(=O)NCC(=O)N1CCC[C@H]1C(=O)N[C@@H](CO)C(=O)N[C@@H](CO)C(=O)NCC(=O)N[C@@H](CCC(=O)O)C(=O)N1CCC[C@H]1C(=O)N1CCC[C@H]1C(=O)N1CCC[C@H]1C(=O)N[C@@H](CCC(=O)O)C(N)=O [Example 451] (H-Y[Aib]QGT[αMePhe(2-F)]TSD[4Pal][αMeS]I[αMeL]LD[Orn]K([AEEA-γGlu-γGlu-C18 diacid])AQ[Aib]NFI[dE][αMeY]LIEGGPSSGEPPPE-NH2; N-terminus assumed)	–	–	–	–	–	–
